# System: MV-4-11 cells
# Experiment: Gene expression microarray analysis (Affymetrix PrimeView) and GSEA
# Format: cell-based, human
# Design: RFU PODN (11730768_x_at) / Fold change /veh PODN (11730768_x_at) / RFU LINC00158 (11744669_a_at) / Fold change /veh LINC00158 (11744669_a_at) / RFU DUSP10 (11751237_a_at) / Fold change /veh DUSP10 (11751237_a_at) / RFU ID3 (11757404_x_at) / Fold change /veh ID3 (11757404_x_at) / RFU PLEKHG5 (11737974_s_at) / Fold change /veh PLEKHG5 (11737974_s_at) / RFU LRRC4B (11730491_at) / Fold change /veh LRRC4B (11730491_at) / RFU GIMAP4 (11747438_a_at) / Fold change /veh GIMAP4 (11747438_a_at) / RFU KRT8 (11758183_x_at) / Fold change /veh KRT8 (11758183_x_at) / RFU CNN1 (11734310_a_at) / Fold change /veh CNN1 (11734310_a_at) / RFU VPS37D (11726825_at) / Fold change /veh VPS37D (11726825_at) / RFU C10orf10 (11716522_x_at) / Fold change /veh C10orf10 (11716522_x_at) / RFU KIR2DL2 /// KIR2DL4 /// KIR2DL5A /// KIR2DL5B /// KIR2DS1 /// KIR2DS2 /// KIR2DS3 /// KIR2DS4 /// KIR3DL3 /// KIR3DL3 /// KIR3DS1 (11738374_at) / Fold change /veh KIR2DL2 /// KIR2DL4 /// KIR2DL5A /// KIR2DL5B /// KIR2DS1 /// KIR2DS2 /// KIR2DS3 /// KIR2DS4 /// KIR3DL3 /// KIR3DL3 /// KIR3DS1 (11738374_at) / RFU C1QL1 (11718748_at) / Fold change /veh C1QL1 (11718748_at) / RFU TMPRSS4 (11747572_a_at) / Fold change /veh TMPRSS4 (11747572_a_at) / RFU HAMP (11756126_x_at) / Fold change /veh HAMP (11756126_x_at) / RFU RNFT2 (11725882_a_at) / Fold change /veh RNFT2 (11725882_a_at) / RFU NR4A2 (11747474_a_at) / Fold change /veh NR4A2 (11747474_a_at) / RFU ABCC12 (11746883_a_at) / Fold change /veh ABCC12 (11746883_a_at) / RFU TMEM136 (11760407_x_at) / Fold change /veh TMEM136 (11760407_x_at) / RFU CLDN22 /// WWC2 (11732394_at) / Fold change /veh CLDN22 /// WWC2 (11732394_at) / RFU HLA-DPB1 (11760878_x_at) / Fold change /veh HLA-DPB1 (11760878_x_at) / RFU SPINT1 (11716480_a_at) / Fold change /veh SPINT1 (11716480_a_at) / RFU GAP43 (11754022_s_at) / Fold change /veh GAP43 (11754022_s_at) / RFU A4GNT (11735810_at) / Fold change /veh A4GNT (11735810_at) / RFU PRB3 (11715151_x_at) / Fold change /veh PRB3 (11715151_x_at) / RFU TUBB4B (11761932_at) / Fold change /veh TUBB4B (11761932_at) / RFU CAPN14 (11732068_a_at) / Fold change /veh CAPN14 (11732068_a_at) / RFU TMCC2 (11721928_a_at) / Fold change /veh TMCC2 (11721928_a_at) / RFU IRGQ (11745062_a_at) / Fold change /veh IRGQ (11745062_a_at) / RFU FAM174B (11720279_a_at) / Fold change /veh FAM174B (11720279_a_at) / RFU TMPRSS4 (11748680_a_at) / Fold change /veh TMPRSS4 (11748680_a_at) / RFU FAM212B (11763350_a_at) / Fold change /veh FAM212B (11763350_a_at) / RFU PLEKHG5 (11743358_a_at) / Fold change /veh PLEKHG5 (11743358_a_at) / RFU ZSCAN30 (11745921_a_at) / Fold change /veh ZSCAN30 (11745921_a_at) / RFU CMKLR1 (11741424_a_at) / Fold change /veh CMKLR1 (11741424_a_at) / RFU LOC101060620 /// MAPK8IP1 (11723275_at) / Fold change /veh LOC101060620 /// MAPK8IP1 (11723275_at) / RFU SPTSSB (11747773_x_at) / Fold change /veh SPTSSB (11747773_x_at) / RFU PRSS12 (11739890_at) / Fold change /veh PRSS12 (11739890_at) / RFU BIN1 (11741810_x_at) / Fold change /veh BIN1 (11741810_x_at) / RFU WNT11 (11732464_a_at) / Fold change /veh WNT11 (11732464_a_at) / RFU C10orf10 (11716521_a_at) / Fold change /veh C10orf10 (11716521_a_at) / RFU C5orf56 (11738089_at) / Fold change /veh C5orf56 (11738089_at) / RFU CYB561 (11721691_x_at) / Fold change /veh CYB561 (11721691_x_at) / RFU ANKRD19P (11752326_a_at) / Fold change /veh ANKRD19P (11752326_a_at) / RFU OR2T12 /// OR2T33 /// OR2T8 (11738714_s_at) / Fold change /veh OR2T12 /// OR2T33 /// OR2T8 (11738714_s_at) / RFU VCAN (11748164_a_at) / Fold change /veh VCAN (11748164_a_at) / RFU JSRP1 (11732532_at) / Fold change /veh JSRP1 (11732532_at) / RFU KRTAP10-11 (11738290_x_at) / Fold change /veh KRTAP10-11 (11738290_x_at) / RFU MYO3A (11730013_a_at) / Fold change /veh MYO3A (11730013_a_at) / RFU EBF3 (11725865_a_at) / Fold change /veh EBF3 (11725865_a_at) / RFU CAMK2N1 (11719241_x_at) / Fold change /veh CAMK2N1 (11719241_x_at) / RFU C5orf56 (11738088_a_at) / Fold change /veh C5orf56 (11738088_a_at) / RFU OLFML3 (11715873_a_at) / Fold change /veh OLFML3 (11715873_a_at) / RFU LOC100653217 /// NTM (11731650_a_at) / Fold change /veh LOC100653217 /// NTM (11731650_a_at) / RFU MAPK11 (11762145_a_at) / Fold change /veh MAPK11 (11762145_a_at) / RFU FIZ1 (11724087_x_at) / Fold change /veh FIZ1 (11724087_x_at) / RFU OASL (11726364_x_at) / Fold change /veh OASL (11726364_x_at) / RFU SOX15 (11748057_x_at) / Fold change /veh SOX15 (11748057_x_at) / RFU CD79A (11719716_a_at) / Fold change /veh CD79A (11719716_a_at) / RFU HIST1H1D (11736915_at) / Fold change /veh HIST1H1D (11736915_at) / RFU CASKIN2 (11723855_a_at) / Fold change /veh CASKIN2 (11723855_a_at) / RFU LOC730098 (11760151_x_at) / Fold change /veh LOC730098 (11760151_x_at) / RFU OR4N2 (11742367_at) / Fold change /veh OR4N2 (11742367_at) / RFU PRRT2 (11749266_a_at) / Fold change /veh PRRT2 (11749266_a_at) / RFU SNX32 (11753110_a_at) / Fold change /veh SNX32 (11753110_a_at) / RFU CDHR5 (11726645_a_at) / Fold change /veh CDHR5 (11726645_a_at) / RFU RCAN1 (11760418_a_at) / Fold change /veh RCAN1 (11760418_a_at) / RFU FAM167A (11723789_a_at) / Fold change /veh FAM167A (11723789_a_at) / RFU FAM26E (11764081_at) / Fold change /veh FAM26E (11764081_at) / RFU ISYNA1 (11749810_s_at) / Fold change /veh ISYNA1 (11749810_s_at) / RFU ACY1 (11761880_at) / Fold change /veh ACY1 (11761880_at) / RFU 11764098_at / Fold change /veh 11764098_at / RFU SAMD14 (11745864_x_at) / Fold change /veh SAMD14 (11745864_x_at) / RFU NPB (11741838_a_at) / Fold change /veh NPB (11741838_a_at) / RFU TMPRSS6 (11731388_a_at) / Fold change /veh TMPRSS6 (11731388_a_at) / RFU KRTAP10-2 (11738614_at) / Fold change /veh KRTAP10-2 (11738614_at) / RFU ARHGAP8 /// PRR5-ARHGAP8 (11727945_x_at) / Fold change /veh ARHGAP8 /// PRR5-ARHGAP8 (11727945_x_at) / RFU KRTAP5-7 /// NADSYN1 (11734609_at) / Fold change /veh KRTAP5-7 /// NADSYN1 (11734609_at) / RFU RASL12 (11751679_a_at) / Fold change /veh RASL12 (11751679_a_at) / RFU CDKN2B (11736163_a_at) / Fold change /veh CDKN2B (11736163_a_at) / RFU PRF1 (11729649_at) / Fold change /veh PRF1 (11729649_at) / RFU, ZNF638 /// ZNF638-IT1 / Fold change vs veh, ZNF638 /// ZNF638-IT1 / RFU, PANK3 / Fold change vs veh, PANK3 / RFU, SH3YL1 / Fold change vs veh, SH3YL1 / RFU, ZEB2 / Fold change vs veh, ZEB2 / RFU, NRIP1 / Fold change vs veh, NRIP1 / RFU, PTTG1IP / Fold change vs veh, PTTG1IP / RFU, CAPN2 / Fold change vs veh, CAPN2 / RFU, MED14 / Fold change vs veh, MED14 / RFU, SNORA58 / Fold change vs veh, SNORA58 / RFU, C1orf63 / Fold change vs veh, C1orf63 / RFU, LRRFIP1 / Fold change vs veh, LRRFIP1 / RFU, NDUFAF7 / Fold change vs veh, NDUFAF7 / RFU, SLC12A2 / Fold change vs veh, SLC12A2 / RFU, IBTK / Fold change vs veh, IBTK / RFU, ESF1 / Fold change vs veh, ESF1 / Fold change vs veh, TMEM50B / RFU, TAOK1 / Fold change vs veh, TAOK1 / RFU, ACBD3 / Fold change vs veh, ACBD3 / RFU, TMA16 / Fold change vs veh, TMA16 / RFU, RWDD3 / Fold change vs veh, RWDD3 / RFU, BCAT1 / Fold change vs veh, BCAT1 / RFU, EDEM3 / Fold change vs veh, EDEM3 / RFU, TMEM33 / Fold change vs veh, TMEM33 / RFU, WDR75 / Fold change vs veh, WDR75 / RFU, AHCTF1 / Fold change vs veh, AHCTF1 / RFU, TFRC / Fold change vs veh, TFRC / RFU, ZDHHC17 / Fold change vs veh, ZDHHC17 / RFU, NOM1 / Fold change vs veh, NOM1 / RFU, ARL8B / Fold change vs veh, ARL8B / RFU, ZBTB11 / Fold change vs veh, ZBTB11 / RFU, TAMM41 / Fold change vs veh, TAMM41 / RFU, KIAA1704 /// LOC100996395 / Fold change vs veh, KIAA1704 /// LOC100996395 / RFU, ING1 / Fold change vs veh, ING1 / RFU, TRMT61B / Fold change vs veh, TRMT61B / RFU, FUBP3 / Fold change vs veh, FUBP3 / RFU, TP53 / Fold change vs veh, TP53 / RFU, TNKS2 / Fold change vs veh, TNKS2 / RFU, ZFP14 / Fold change vs veh, ZFP14 / RFU, ACTR2 / Fold change vs veh, ACTR2 / RFU, PPP3R1 / Fold change vs veh, PPP3R1 / RFU, PIK3R1 / Fold change vs veh, PIK3R1 / RFU, HNRNPA1 / Fold change vs veh, HNRNPA1 / RFU, RNF170 / Fold change vs veh, RNF170 / RFU, ZNF28 / Fold change vs veh, ZNF28 / RFU, RNGTT / Fold change vs veh, RNGTT / RFU, OGT / Fold change vs veh, OGT / RFU, BRD1 / Fold change vs veh, BRD1 / RFU, MARS / Fold change vs veh, MARS / RFU, ZNF655 / Fold change vs veh, ZNF655 / RFU, FAHD1 / Fold change vs veh, FAHD1 / RFU, BDP1 / Fold change vs veh, BDP1 / RFU, LRRCC1 / Fold change vs veh, LRRCC1 / RFU, ARID1A / Fold change vs veh, ARID1A / RFU, ZNF146 / Fold change vs veh, ZNF146 / RFU, ZNF330 / Fold change vs veh, ZNF330 / RFU, GPN3 / Fold change vs veh, GPN3 / RFU, C9orf123 / Fold change vs veh, C9orf123 / RFU, N4BP2L2 / Fold change vs veh, N4BP2L2 / RFU, ARFIP1 / Fold change vs veh, ARFIP1 / RFU, FAM179B / Fold change vs veh, FAM179B / RFU, BCL10 / Fold change vs veh, BCL10 / RFU, UHRF1BP1L / Fold change vs veh, UHRF1BP1L / RFU, BET1 / Fold change vs veh, BET1 / RFU, CNOT2 / Fold change vs veh, CNOT2 / RFU, ZNF268 / Fold change vs veh, ZNF268 / Fold change vs veh, ZNF507 / RFU, DGCR2 / Fold change vs veh, DGCR2 / RFU, WDSUB1 / Fold change vs veh, WDSUB1 / Fold change vs veh, HSP90B1 /// MIR3652 / RFU, ADSS / Fold change vs veh, ADSS / RFU, GK / Fold change vs veh, GK / RFU, ZNF148 / Fold change vs veh, ZNF148 / RFU, TAF9 / Fold change vs veh, TAF9 / RFU, SLC1A5 / Fold change vs veh, SLC1A5 / RFU, SLMO2 / Fold change vs veh, SLMO2 / RFU, ABCC4 / Fold change vs veh, ABCC4 / RFU, LOC101060439 /// RAP1B / Fold change vs veh, LOC101060439 /// RAP1B / RFU, RFX7 / Fold change vs veh, RFX7 / RFU, GTPBP10 / Fold change vs veh, GTPBP10 / RFU, CNEP1R1 / Fold change vs veh, CNEP1R1 / RFU, BIVM-ERCC5 /// ERCC5 / Fold change vs veh, BIVM-ERCC5 /// ERCC5 / RFU, ILF3 / Fold change vs veh, ILF3 / RFU 11762660_at / Fold change /veh 11762660_at / RFU VCAN (11757783_s_at) / Fold change /veh VCAN (11757783_s_at) / RFU DDX43 (11728927_at) / Fold change /veh DDX43 (11728927_at) / RFU KRT8 (11758188_x_at) / Fold change /veh KRT8 (11758188_x_at) / RFU NKD1 (11759106_at) / Fold change /veh NKD1 (11759106_at) / RFU SRD5A1 (11742802_a_at) / Fold change /veh SRD5A1 (11742802_a_at) / RFU TPSAB1 /// TPSB2 (11721975_s_at) / Fold change /veh TPSAB1 /// TPSB2 (11721975_s_at) / RFU GSTM3 (11746129_a_at) / Fold change /veh GSTM3 (11746129_a_at) / RFU IL23R (11737362_x_at) / Fold change /veh IL23R (11737362_x_at) / RFU TMEM51 (11727254_a_at) / Fold change /veh TMEM51 (11727254_a_at) / RFU PIWIL2 (11732686_x_at) / Fold change /veh PIWIL2 (11732686_x_at) / RFU ORM1 (11744905_x_at) / Fold change /veh ORM1 (11744905_x_at) / RFU CCDC152 (11743942_at) / Fold change /veh CCDC152 (11743942_at) / RFU ECM1 (11717891_a_at) / Fold change /veh ECM1 (11717891_a_at) / RFU IL23R (11748794_a_at) / Fold change /veh IL23R (11748794_a_at) / RFU TNFAIP8L3 (11732012_x_at) / Fold change /veh TNFAIP8L3 (11732012_x_at) / RFU MBOAT4 (11741988_at) / Fold change /veh MBOAT4 (11741988_at) / RFU 11764193_at / Fold change /veh 11764193_at / RFU TMEM53 (11763286_at) / Fold change /veh TMEM53 (11763286_at) / RFU MAGEB2 (11727129_at) / Fold change /veh MAGEB2 (11727129_at) / RFU TMEM200A (11744735_a_at) / Fold change /veh TMEM200A (11744735_a_at) / RFU CCDC152 (11751479_a_at) / Fold change /veh CCDC152 (11751479_a_at) / RFU FAM211A (11726209_a_at) / Fold change /veh FAM211A (11726209_a_at) / RFU RGS16 (11746705_a_at) / Fold change /veh RGS16 (11746705_a_at) / RFU VCAN (11755009_s_at) / Fold change /veh VCAN (11755009_s_at) / RFU RHOB (11743442_s_at) / Fold change /veh RHOB (11743442_s_at) / RFU RGS16 (11720943_a_at) / Fold change /veh RGS16 (11720943_a_at) / RFU RGS16 (11720944_at) / Fold change /veh RGS16 (11720944_at) / RFU, VPS4B / Fold change vs veh, VPS4B / RFU, CREB1 / Fold change vs veh, CREB1 / RFU, DNAJC13 / Fold change vs veh, DNAJC13 / RFU, GNAQ / Fold change vs veh, GNAQ / RFU, CDK5R1 / Fold change vs veh, CDK5R1 / RFU, ZRANB3 / Fold change vs veh, ZRANB3 / RFU, CUL4A / Fold change vs veh, CUL4A / RFU, CCNY / Fold change vs veh, CCNY / RFU, UFL1 / Fold change vs veh, UFL1 / RFU, COG3 / Fold change vs veh, COG3 / RFU, DIAPH2 / Fold change vs veh, DIAPH2 / RFU, SKA2 / Fold change vs veh, SKA2 / RFU, AFF3 / Fold change vs veh, AFF3 / RFU, LMF1 / Fold change vs veh, LMF1 / RFU, IPO11 / Fold change vs veh, IPO11 / RFU, DFFB / Fold change vs veh, DFFB / RFU, FOXP1 / Fold change vs veh, FOXP1 / RFU, CARD8 / Fold change vs veh, CARD8 / RFU, STRN3 / Fold change vs veh, STRN3 / RFU, ADK / Fold change vs veh, ADK / RFU, RASSF2 / Fold change vs veh, RASSF2 / RFU, WIPF1 / Fold change vs veh, WIPF1 / RFU, LARP1B / Fold change vs veh, LARP1B / RFU, RASA1 / Fold change vs veh, RASA1 / RFU, RB1 / Fold change vs veh, RB1 / RFU, PPFIA1 / Fold change vs veh, PPFIA1 / RFU, MAT2A / Fold change vs veh, MAT2A / RFU, CCT5 / Fold change vs veh, CCT5 / RFU, WDR92 / Fold change vs veh, WDR92 / RFU, CUX1 / Fold change vs veh, CUX1 / RFU, TTC7A / Fold change vs veh, TTC7A / RFU, TMEM135 / Fold change vs veh, TMEM135 / RFU, DEPTOR / Fold change vs veh, DEPTOR / RFU, CPM / Fold change vs veh, CPM / RFU, DNAJB6 / Fold change vs veh, DNAJB6 / RFU, CACNA2D3 / Fold change vs veh, CACNA2D3 / RFU, DTX4 / Fold change vs veh, DTX4 / RFU, TFCP2 / Fold change vs veh, TFCP2 / RFU, GMCL1 /// GMCL1P1 / Fold change vs veh, GMCL1 /// GMCL1P1 / RFU, AEBP2 / Fold change vs veh, AEBP2 / RFU, SNHG1 /// SNORD22 /// SNORD25 /// SNORD26 /// SNORD27 /// SNORD28 /// SNORD29 /// SNORD31 / Fold change vs veh, SNHG1 /// SNORD22 /// SNORD25 /// SNORD26 /// SNORD27 /// SNORD28 /// SNORD29 /// SNORD31 / Fold change (Aza/veh), C12orf56 (ProbeSet 11735607_a_at) / Fold change (ACY-1035/veh), C12orf56 (ProbeSet 11735607_a_at) / Fold change (Aza/veh), FGFR1OP (ProbeSet 11751329_s_at) / Fold change (ACY-1035/veh), FGFR1OP (ProbeSet 11751329_s_at) / Fold change (Aza/veh), VPS36 (ProbeSet 11739960_a_at) / Fold change (ACY-1035/veh), VPS36 (ProbeSet 11739960_a_at) / RFU SYPL1 (11715823_x_at) / Fold change /veh SYPL1 (11715823_x_at) / RFU IGFBP7 (11715501_s_at) / Fold change /veh IGFBP7 (11715501_s_at) / RFU REEP3 (11722064_at) / Fold change /veh REEP3 (11722064_at) / RFU IGLL1 (11728026_x_at) / Fold change /veh IGLL1 (11728026_x_at): dose or concentration left out as unconfirmed
# Settings: MV-4-11 cells, 48 hours
compound,measurement,value
Nc1ccc(-c2cccs2)cc1NC(=O)c1ccc2c(c1)cc(C1CC1)n2CCN1CCOCC1 [ACY-1035],RFU C1QL1 (11718748_at),611.11 RFU
